From patent US20200390100A1, “SUBSTITUTED N-HETEROCYCLYL- AND N-HETEROARYL-TETRAHYDROPYRIMIDINONES AND THE SALTS THEREOF, AND THE USE OF SAME AS HERBICIDAL ACTIVE SUBSTANCES” (Bayer Aktiengesellschaft, priority 2017, published 2020)

Key:
[1] = test system: Digitaria sanguinalis; experiment: Pre-emergence herbicidal action, greenhouse, 320 g/ha; assay type: in vivo; settings: application rate 320 g/ha, Table B9
Method in brief: (§1)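 Visual % damage versus untreated pots was read about 3 weeks after treatment, where 0% means growth as in controls and 100% means dead plants. Compounds were applied as WP or EC in water plus 0.5% additive onto the covering soil over freshly sown seeds.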

[2] = test system: Polygonum convolvulus; experiment: as above; assay type: in vivo; settings: application rate 320 g/ha, scored visually after about 3 weeks vs untreated controls
Method in brief: as §1

[3] = test system: Abutilon theophrasti; experiment: Herbicidal pre-emergence action (Part 2), 1280 g/ha; assay type: in vivo; settings: application rate 1280 g/ha, scored visually after about 3 weeks, Table D5
Method in brief: (§2)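 Visual percent activity relative to untreated plants (0% = like control, 100% = plants died) was rated about 3 weeks after treatment. Compounds formulated as WP or EC were applied at 1280 g/ha onto covering soil over freshly sown weeds, in 600 L/ha spray water with 0.5% additive, with greenhouse growth.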

[4] = test system: Amaranthus retroflexus; experiment: as above; assay type: in vivo; settings: application rate 1280 g/ha, scored visually after about 3 weeks, Table D6
Method in brief: as §2

[5] = test system: Echinochloa crus-galli; experiment: as above; assay type: in vivo; settings: application rate 1280 g/ha, scored visually after about 3 weeks, Table D1
Method in brief: as §2

[6] = test system: Lolium rigidum; experiment: as above; assay type: in vivo; settings: application rate 1280 g/ha, scored visually after about 3 weeks, Table D2
Method in brief: as §2

[7] = test system: Matricaria inodora; experiment: as above; assay type: in vivo; settings: application rate 1280 g/ha, scored visually after about 3 weeks, Table D7
Method in brief: as §2

[8] = test system: Poa annua; experiment: as above; assay type: in vivo; settings: application rate 1280 g/ha, scored visually after about 3 weeks, Table D3
Method in brief: as §2

[9] = test system: Setaria viridis; experiment: as above; assay type: in vivo; settings: application rate 1280 g/ha, scored visually after about 3 weeks, Table D4
Method in brief: as §2

[10] = test system: Stellaria media; experiment: as above; assay type: in vivo; settings: application rate 1280 g/ha, scored visually after about 3 weeks, Table D8
Method in brief: as §2

[11] = target: T1, photosystem II (PS II) (Spinacia oleracea, UniProt P69560); experiment: Measurement of PS II activity in thylakoid membranes (DCPIP reduction); assay type: biochemical, spinach; settings: PS II activity in spinach thylakoid membranes, Table E1; read-out: Effect
T1 construct: the chloroplasts were osmotically ruptured and the thylakoid membranes were then obtained by centrifugation; from tissue; host or cells: fresh spinach leaves; thylakoid membrane preparation from isolated chloroplasts
Method in brief: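 Thylakoid membranes from osmotically ruptured spinach chloroplasts in 50 mM phosphate pH 6.8, 10 mM KCl; compounds added from 100 μM DMSO solution (2.5% DMSO final), 120 μM DCPIP final. DCPIP reduction under light tracked as absorbance decrease at 595 nm over 10 min at 22 °C; % inhibition binned, metribuzin as plate standard.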

inhibition at 100 µM [11]: 70 to 90%
SMILES: CC1CC(O)N(c2cc(C(C)(C)C)on2)C(=O)N1C (centres unmarked) [I.41-162, 1-(5-tert-Butyl-1,2-oxazol-3-yl)-6-hydroxy-3,4-dimethyltetrahydropyrimidin-2(1H)-one]
Digitaria sanguinalis (efficacy in %) [1]: 100%
Polygonum convolvulus (efficacy in %) [2]: 100%
Abutilon theophrasti [3]: 100%
Amaranthus retroflexus [4]: 100%
Echinochloa crus-galli [5]: 100%
Lolium rigidum [6]: 100%
Matricaria inodora [7]: 100%
Poa Annua [8]: 100%
Setaria viridis [9]: 100%
Stellaria media [10]: 100%
